Laboratory results: patent publication US5750362A, “Methods for identifying substances with a potential herbicidal or growth-regulating action by means of plant transporter proteins, the use of the transporter proteins, and substances with a herbicidal and growth-regulating action” (BASF Aktiengesellschaft, priority 1993, dated 1998)

Experiments:
[1] = biological target: T1, ammonium transporter AMT1 (Arabidopsis thaliana, UniProt P54144); experiment: Substrate specificity, Km and Ki determination of the ammonium transporter in yeast strain 26972c; type: cell-based; conditions: inhibition of methylamine transport by various concentrations of ammonium; read-out: Ki (inhibitor constant)
T1 construct: expressed in transfected cells; host or cells: Saccharomyces cerevisiae 26972c (mutations in MEP1 and MEP2)
T1 sequence (P54144 1-501): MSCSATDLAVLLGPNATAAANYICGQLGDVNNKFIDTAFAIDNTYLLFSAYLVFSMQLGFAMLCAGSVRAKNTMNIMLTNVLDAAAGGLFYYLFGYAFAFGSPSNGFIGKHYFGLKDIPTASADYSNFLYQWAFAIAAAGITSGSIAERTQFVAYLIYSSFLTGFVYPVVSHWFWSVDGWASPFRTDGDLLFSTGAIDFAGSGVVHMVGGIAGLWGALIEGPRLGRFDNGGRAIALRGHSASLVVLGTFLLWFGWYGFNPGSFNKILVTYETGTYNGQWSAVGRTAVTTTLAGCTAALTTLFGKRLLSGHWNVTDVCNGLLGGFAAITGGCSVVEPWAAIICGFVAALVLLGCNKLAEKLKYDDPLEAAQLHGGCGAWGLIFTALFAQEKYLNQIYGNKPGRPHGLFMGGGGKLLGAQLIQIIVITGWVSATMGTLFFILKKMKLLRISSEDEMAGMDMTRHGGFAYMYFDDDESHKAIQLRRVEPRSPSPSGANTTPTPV
Experimental: The investigations of the substrate specificity and the Km determinations are carried out with the yeast strain .music-natural. 26972c (Dubois & Grenson, Mol. Gen. Genet. 175: 67-76, 1979) which expresses the plant ammonium transporter AMT1. The method for this is as in Example 6, except for the fact that the methylamine substrate concentration is varied. […] To determine the affinity of the transport system for ammonium, the inhibition of methylamine transport by various concentration [sic] of ammonium is determined (inhibitor constant, Ki)

[2] = biological target: T2, sucrose transporter P62 (StSUT1) (Solanum tuberosum, UniProt Q43653); experiment: [14C]-sucrose uptake by yeast strain SUSY-7-P62 (StSUT1) expressing the potato sucrose transporter; type: cell-based; conditions: [14C]-sucrose uptake, pH 3.8; tested substance 0.1 mM
T2 construct: whole-cell [14C]-sucrose uptake; no tag or borders given
T2 sequence (Q43653 1-516): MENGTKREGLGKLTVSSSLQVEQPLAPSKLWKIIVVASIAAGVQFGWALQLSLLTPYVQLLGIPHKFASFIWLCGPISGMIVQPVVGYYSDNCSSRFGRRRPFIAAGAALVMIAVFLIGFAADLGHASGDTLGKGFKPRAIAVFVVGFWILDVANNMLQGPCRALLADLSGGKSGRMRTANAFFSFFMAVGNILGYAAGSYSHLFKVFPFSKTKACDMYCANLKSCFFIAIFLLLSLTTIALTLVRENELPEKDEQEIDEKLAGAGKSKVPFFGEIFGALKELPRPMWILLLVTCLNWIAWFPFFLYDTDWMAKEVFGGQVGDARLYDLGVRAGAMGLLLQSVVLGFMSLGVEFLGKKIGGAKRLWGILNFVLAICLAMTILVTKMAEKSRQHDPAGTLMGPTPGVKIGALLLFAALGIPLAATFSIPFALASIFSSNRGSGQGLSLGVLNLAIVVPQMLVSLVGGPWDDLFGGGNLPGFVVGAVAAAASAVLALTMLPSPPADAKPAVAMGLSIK
Excerpt: Yeast cells of the strain SUSY7 (Riesmeier et al., 1992, EMBO J. 11: 4705-4713) are used to identify substances which have an inhibitory effect on sucrose transporters from potato. Cells of this strain are transformed with a cDNA sequence which codes for the sucrose transporter P62 (StSUT1) from potato (WO 94/00574, Riesmeier et al., 1993, Plant Cell 5:1591-1598) and which ensures expression of a functional transporter in the cells. The resulting yeast strain was called SUSY-7-P62 (StSUT1). The yeast cells are cultured in minimal medium (SD +2% (w/v) sucrose, pH 3.8) at 28° C. and harvested in the logarithmic phase (OD600 =0.6). The cells are spun down at 4000 rpm for 10 minutes and washed twice with SD medium. A cell concentration of c=50 g/l in SD medium is adjusted according to the wet weight of the cells, and 200 Al aliquot fractions are taken. Before the actual reaction, the cells are incubated in 10 mM glucose for 5 min and adjusted to pH 3.8 with MES buffer. The reaction is started by adding 200 Al of a 0.2 mmol/l [14C]-sucrose solution (3 mCi/mmol) in SD medium (pH 3.8). After 20, 60, 120, 180 and 240 seconds, 70 μl portions of the suspension are removed and pipetted into 4 ml of ice-cold water in order to stop the reaction. The cells are filtered off on glass fiber filters and washed twice with ice-cold water. The radioactivity on the filters is subsequently determined in a liquid scintillation counter. The substances to be tested are added 30 seconds before addition of the sucrose. The uptake of radiolabeled sucrose without addition of a potential inhibitor is determined as one control. Cells of the strain SUSY7 which are not transformed with cDNA sequences coding for a sucrose transporter from potato are employed as further control.
The various tested substances, their concentration and the activity of the transporter, shown as percentage activity of the control in which no potential inhibitors were added, are indicated.

[3] = biological target: T3, sucrose transporter S21 (SoSUT1) (Spinacia oleracea, UniProt Q03411); experiment: [14C]-sucrose uptake by yeast strain SUSY7 expressing the spinach sucrose transporter; type: cell-based; conditions: [14C]-sucrose uptake, pH 3.8; tested substance 0.1 mM
T3 construct: expressed in transfected cells; host or cells: Saccharomyces cerevisiae SUSY7
T3 sequence (Q03411 1-525): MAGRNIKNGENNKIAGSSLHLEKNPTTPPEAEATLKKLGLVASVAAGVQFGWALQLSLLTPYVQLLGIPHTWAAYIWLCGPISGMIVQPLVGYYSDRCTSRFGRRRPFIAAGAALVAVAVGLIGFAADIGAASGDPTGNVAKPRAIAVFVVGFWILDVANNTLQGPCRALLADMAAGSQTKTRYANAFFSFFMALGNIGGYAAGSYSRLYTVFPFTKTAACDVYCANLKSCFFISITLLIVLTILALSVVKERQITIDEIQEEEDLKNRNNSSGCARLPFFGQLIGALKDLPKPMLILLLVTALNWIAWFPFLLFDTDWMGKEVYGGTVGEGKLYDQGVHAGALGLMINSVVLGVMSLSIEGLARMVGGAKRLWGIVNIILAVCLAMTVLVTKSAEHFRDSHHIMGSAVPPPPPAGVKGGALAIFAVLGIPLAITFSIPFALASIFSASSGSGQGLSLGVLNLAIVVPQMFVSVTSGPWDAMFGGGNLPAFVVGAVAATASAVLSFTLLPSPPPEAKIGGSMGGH
Experimental: Yeast cells of the strain SUSY7 (Riesmeier et al., 1992, EMBO J. 11: 4705-4713) are used to identify substances which have an inhibitory effect on sucrose transporters from spinach. Cells of this strain are transformed with a cDNA sequence which codes for the sucrose transporter S21 (SoSUT1) from spinach and which ensures expression of a functional transporter in the cells. The yeast cells are cultured in minimal medium (SD+2% (w/v) sucrose, pH 3.8) at 28° C. and harvested in the logarithmic phase (OD600 =0.6). The cells are spun down at 4000 rpm for 10 minutes and washed twice with SD medium. A cell concentration of c=50 g/l in SD medium is adjusted according to the wet weight of the cells, and 200 μl aliquot fractions are taken. Before the actual reaction, the cells are incubated in 10 mM glucose for 5 min and adjusted to pH 3.8 with MES buffer. The reaction is started by adding 200 μl of a 0.2 mmol/l [14C]-sucrose solution (3 mCi/mmol) in SD medium (pH 3.8). After 20, 60, 120, 180 and 240 seconds, 70 μl portions of the suspension are removed and pipetted into 4 ml of ice-cold water in order to stop the reaction. The cells are filtered off on glass fiber filters and washed twice with ice-cold water. The radioactivity on the filters is subsequently determined in a liquid scintillation counter. The substances to be tested are added 30 seconds before addition of the sucrose. The uptake of radiolabeled sucrose without addition of a potential inhibitor is determined as one control. Cells of the strain SUSY7 which are not transformed with cDNA sequences coding for a sucrose transporter from spinach are employed as further control.
The various tested substances, their concentration and the activity of the transporter, shown as percentage activity of the control in which no potential inhibitors were added, are indicated. Substances which specifically show an inhibitory effect on the sucrose transporter S21 (SoSUT1), are tested for their herbicidal and growth-regulating effect on whole plants.

sucrose transporters = conditions: Bush, 1989, Plant Physiol. 89: 1318-1323; result in words; cited from earlier work
plants = experiment: Herbicidal activity on plants; type: in vivo; conditions: whole plants; result in words
[4] = substrate: OC[C@H]1O[C@@](CO)(O[C@H]2O[C@H](CO)[C@@H](O)[C@H](O)[C@H]2O)[C@@H](O)[C@@H]1O; experiment: Substrate specificity and Km determination of the sucrose transporter in yeast strain SUSY7-pP62; type: cell-based, Solanum tuberosum; conditions: other: substrate of the sucrose transporter; substrate concentration varied, no inhibitors
Experimental: (§1) The investigations of the substrate specificity and the Km determination are carried out in the yeast strain SUSY7-pP62 (StSUT1) (Riesmeier et al., 1993, Plant Cell 5:1591-1598), which expresses the sucrose transporter from Solanum tuberosum. This entails carrying out the method of Example 3 apart from the fact that the substrate concentration is changed and no potential inhibitors are added. […]

[5] = substrate: OC[C@H]1O[C@H](O[C@H]2[C@H](O)[C@@H](O)[C@H](O)O[C@@H]2CO)[C@H](O)[C@@H](O)[C@@H]1O; experiment: as above; type: cell-based, Solanum tuberosum; conditions: other: substrate of the sucrose transporter; substrate concentration varied, no inhibitors
Experimental: as §1

Molecule: N [ammonium]
- Ki [1]: < 10 µM

Molecule: O=S(=O)(O)c1cc[c]([Hg][Cl])cc1 [PCMBS]
- Activity relative to the control [%] [2]: 20%
- Activity relative to the control [%] [3]: 21%
- Inhibition of sucrose transport (sucrose transporters): highly effective transport inhibitors
- Herbicidal activity on plants (plants): herbicidal activity on plants

B1: sucrose transporter P62 (StSUT1) (Solanum tuberosum) (protein)
chain: T2 sequence (Q43653 1-516)
notes: whole-cell [14C]-sucrose uptake; no tag or borders given
- Km [4]: 1 mM
- Km [5]: 10 mM
